Reference: patent US8153781B2, “Dendrimer conjugates of agonists and antagonists of the GPCR superfamily” (The United States of America as represented by the …, priority 2007, dated 2012)
Each block holds one compound with its values, some of them ahead of it.

Legend:
[1] = molecular target: T1, hA2A AR (Homo sapiens, UniProt P29274)
[2] = molecular target: T2, A1AR (Homo sapiens, UniProt P30542); assay: Binding at A1AR with [3H]CCPA, CHO cells
T2 construct: expressed in transfected cells; host or cells: CHO cells
T2 sequence (P30542 1-326): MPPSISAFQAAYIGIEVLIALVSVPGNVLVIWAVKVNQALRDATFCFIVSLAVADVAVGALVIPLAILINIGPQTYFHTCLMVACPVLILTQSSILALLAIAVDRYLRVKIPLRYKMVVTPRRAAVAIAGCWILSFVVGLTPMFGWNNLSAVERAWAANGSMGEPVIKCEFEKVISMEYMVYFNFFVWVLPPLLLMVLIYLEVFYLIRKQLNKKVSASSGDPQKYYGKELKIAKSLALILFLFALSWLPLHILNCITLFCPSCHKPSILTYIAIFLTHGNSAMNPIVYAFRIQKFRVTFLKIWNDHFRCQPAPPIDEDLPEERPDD

[3] = molecular target: T3, A2AAR (Homo sapiens, UniProt P29274); assay: Binding at A2AAR with [3H]CGS21680, HEK cells
T3 construct: expressed in transfected cells; host or cells: CHO
T3 sequence (P29274 whole entry): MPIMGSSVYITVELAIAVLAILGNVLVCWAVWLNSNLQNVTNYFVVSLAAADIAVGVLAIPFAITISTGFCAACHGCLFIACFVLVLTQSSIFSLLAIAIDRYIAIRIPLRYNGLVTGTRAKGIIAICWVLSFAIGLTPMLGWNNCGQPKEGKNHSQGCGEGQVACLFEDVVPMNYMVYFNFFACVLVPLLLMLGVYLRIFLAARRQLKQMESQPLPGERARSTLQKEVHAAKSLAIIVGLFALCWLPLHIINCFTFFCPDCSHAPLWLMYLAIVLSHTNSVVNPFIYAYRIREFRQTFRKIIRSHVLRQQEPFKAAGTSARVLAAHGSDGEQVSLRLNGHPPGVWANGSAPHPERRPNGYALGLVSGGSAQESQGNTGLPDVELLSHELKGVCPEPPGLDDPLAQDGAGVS

[4] = molecular target: T2, A1AR; assay: [35S]GTPγS binding, A1AR; assay type: biochemical; details: CHO cells expressing A1AR
[5] = molecular target: T4, hA1 AR (Homo sapiens, UniProt P30542); assay: Radioligand membrane binding assay, A1 AR; details: Table 3; expressed in CHO cells
T4 construct: expressed in transfected cells; host or cells: CHO cells
T4 sequence (P30542 1-326): T2 sequence (P30542 1-326)

[6] = molecular target: T5, hA3 AR (Homo sapiens, UniProt P0DMS8); assay: Radioligand membrane binding assay, A3 AR; details: Table 3; expressed in CHO cells
T5 construct: expressed in transfected cells; host or cells: CHO cells
T5 sequence (P0DMS8 1-318): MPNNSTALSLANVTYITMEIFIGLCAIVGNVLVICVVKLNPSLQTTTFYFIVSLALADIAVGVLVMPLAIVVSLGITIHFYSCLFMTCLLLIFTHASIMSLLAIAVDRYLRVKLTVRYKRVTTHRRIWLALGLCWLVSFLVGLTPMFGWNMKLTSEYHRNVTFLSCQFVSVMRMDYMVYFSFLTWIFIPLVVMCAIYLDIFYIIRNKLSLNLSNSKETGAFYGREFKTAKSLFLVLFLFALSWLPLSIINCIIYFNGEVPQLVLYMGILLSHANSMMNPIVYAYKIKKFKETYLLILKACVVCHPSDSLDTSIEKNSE
Experimental: (§1) Radioligand Membrane Binding Experiments. Radioligand binding assays were performed for A1, A2A, and A3 ARs. Each tube in the binding assay contained 100 μL of membrane suspension (20 μg of protein), 50 μL of agonist radioligand, and 50 μL of increasing concentrations of the test ligands in Tris-HCl buffer (50 mM, pH 7.5) containing 10 mM MgCl2. Nonspecific binding was determined using […] 5′-N-ethylcarboxamidoadenosine diluted with the buffer. The mixtures were incubated at 25° C. for 60 min. Binding reactions were terminated by filtration through Whatman GF/B filters under a reduced pressure using a MT-24 cell harvester (Brandell, Gaithersburg, Md.). Filters were washed three times with 5 mL of 50 mM ice-cold Tris-HCl buffer (pH 7.5). […] After the filters were washed, the radioactivity was measured using a Beckman γ-counter. For the A1 and A2A assays, the radioactive agonists [^3H] N^6-chlorocyclopentyladenosine and [^3H] 2-(4-(2-carboxyethyl)phenylethylamino)-5′-N-ethylcaboxamido-adenosine were used, respectively. After the filters were washed, they were placed in scintillation vials containing 5 mL of Hydrofluor scintillation buffer and counted using a Perkin Elmer Liquid Scintillation Analyzer. The Ki value was determined using GraphPad Prism for all assays.

[7] = molecular target: T5, hA3 AR; assay: Calcium protocol, CHO cells expressing human A3 receptor; assay type: cell-based
Experimental: Calcium Protocol. Chinese Hamster Ovary (CHO) cells stably expressing the human A3 receptor were grown in Dulbecco's Modified Eagle Medium/F12 (Sigma) supplemented with 10% fetal bovine serum, antibiotics, and glutamine. Each assay was completed by passaging the CHO A3 cells into 96 well plates and incubating overnight at 37° C. with 5% CO2. The FLIPR Calcium 4 Kit provided by Molecular Devices was used as described previously (Niebauer). Briefly, the media was removed from the cells, and 30 μl of the Calcium 4 fluorescent dye supplemented with 2.5 mM probenecid was added to each well. The cells were incubated at room temperature for 45 minutes. The compound plate was prepared by diluting the compounds to 10^−5-10^−9 M in Hanks Buffer. Samples were run in duplicate on the Molecular Devices FlexStation I at room temperature. […] Increases in intracellular calcium are reported as the relative fluorescence units after exposure minus the basal fluorescence value before exposure. Each experiment was repeated at least three times.

[8] = molecular target: T1, hA2A AR; assay: Radioligand membrane binding assay, A2A AR; design: expressed in transfected cells; details: for Ki: Table 3, expressed in CHO cells
Experimental: as §1

[9] = molecular target: T1, hA2A AR; assay: Functional assay at hA2A AR (Table 3); assay type: cell-based; design: expressed in transfected cells; details: Table 3 functional assay
[10] = molecular target: T6, A3 adenosine receptor (Homo sapiens, UniProt P0DMS8); assay: Binding assay at A3 adenosine receptor (Table 7)
T6 sequence (P0DMS8 1-318): T5 sequence (P0DMS8 1-318)
Experimental: CHO (Chinese hamster ovary) cells expressing the recombinant human ARs were cultured in Dulbecco's modified Eagle medium (DMEM) and F12 (1:1) supplemented with 10% fetal bovine serum, 100 units/mL penicillin, 100 μg/mL streptomycin, and 2 μmol/mL glutamine. After harvesting, cells were homogenized and suspended. Cells were then centrifuged at 500 g for 10 min, and the pellet was resuspended in 50 mM Tris-HCl buffer (pH 7.5) containing 10 mM MgCl2. The suspension was homogenized and was then recentrifuged at 20 000 g for 20 min at 4° C. The resultant pellets were resuspended in Tris buffer, incubated with adenosine deaminase for 30 min at 37° C., and the suspension was stored at −80° C. until the binding experiments. The protein concentration was measured using the Bradford assay.
(§2) This Example illustrates a preparation and some of the properties of conjugate 117 in accordance with an embodiment of the invention.

[11] = molecular target: T7, A1 adenosine receptor (Homo sapiens, UniProt P30542); assay: cAMP inhibition assay, A1 adenosine receptor; assay type: cell-based; details: Table 8
T7 sequence (P30542 1-326): T2 sequence (P30542 1-326)
Excerpt: as §2

[12] = molecular target: T6, A3 adenosine receptor; assay: cAMP inhibition assay, A3 adenosine receptor; assay type: cell-based; details: Table 8
Excerpt: as §2

T1 sequence (P29274 whole entry): as the sequence (P29274 whole entry) above

Structure (SMILES): CCNC(=O)[C@H]1O[C@@H](n2cnc3c(N)nc(NCCc4ccc(CCC(=O)NCCN)cc4)nc32)[C@H](O)[C@@H]1O [compound 5, 2-[4-(2-aminoethylaminocarbonylethyl)phenylethylamino]-5′-N-ethylcarboxamidoadenosine]
hA2A, EC50 (class symbol) [1]: FA (Full agonist at 10 μM with >90% of effect of NECA)

Ki [2]: 30 nM
Ki [3]: 800 ± 360 nM
EC50 [4]: 3000 ± 1300 nM
Structure (SMILES): O=C(O)CCc1ccc(NC(=S)NCCNC(=O)Cc2ccc(NC(=O)Cc3ccc(Nc4ncnc5c4ncn5[C@@H]4O[C@H](CO)[C@@H](O)[C@H]4O)cc3)cc2)cc1 [compound 104]

Ki [5]: 984 ± 223 nM
Ki [6]: 58 ± 24 nM
EC50 [7]: 725 ± 110 nM
Ki [8]: 110 ± 15 nM
EC50 [9]: 51 ± 8 nM
Structure (SMILES): CCNC(=O)[C@H]1OC(n2cnc3c(N)nc(NCCc4ccc(CCC(=O)NCCNC(C)=O)cc4)nc32)[C@@H](O)C1O (stereo partly shown) [compound 16]

Structure (SMILES): CCNC(=O)[C@H]1OC(n2cnc3c(N)nc(NCCc4ccc(CCC(=O)NCCNC(=S)Nc5ccc(N=C=S)cc5)cc4)nc32)[C@@H](O)C1O (stereo partly shown) [compound 6]
inhibition at 10 µM ([8]; read-out: inhibition of binding at the hA2A AR): 58%

Structure (SMILES): NCCNC(=O)Cc1ccc(NC(=O)Cc2ccc(Nc3ncnc4c3ncn4[C@@H]3O[C@H](CO)[C@@H](O)[C@H]3O)cc2)cc1 [compound 101, N^6-[4-[[[4-[[[(2-Aminoethyl)amino]carbonyl]methyl]-anilino]carbonyl]methyl]phenyl]adenosine, reference compound]
Ki [2]: 10.4 ± 3.8 nM
Ki [3]: 370 ± 100 nM
EC50 [4]: 120 ± 13 nM

Ki [2]: 43 nM
Ki [3]: 300 ± 20 nM
Ki [10]: 10 ± 2 nM
EC50 [4]: 50 nM
Ki [11]: 72 nM
Ki [12]: 61 nM
Structure (SMILES): NCCNCCNC(=O)Cc1ccc(NC(=O)Cc2ccc(Nc3ncnc4c3ncn4[C@@H]3O[C@H](CO)[C@@H](O)[C@H]3O)cc2)cc1 [compound 107, N-(2-Aminoethyl)-ADAC]

Ki [5]: 840 ± 100 nM
EC50 [7]: 375 ± 40 nM
Ki [8]: 70 nM
Structure (SMILES): CCNC(=O)[C@H]1OC(n2cnc3c(N)nc(NCCc4ccc(CCC(=O)NCCNC(=S)Nc5ccc(NC(=S)NCCNC(C)=O)cc5)cc4)nc32)[C@@H](O)C1O (stereo partly shown) [compound 7]
